Source: ChEMBL document CHEMBL1148195, “Chemical investigation of predator-deterred macroalgae from the Antarctic peninsula” (2004)
Calls of active or inactive are those of the source. The rule behind the calls is not given here.

Key:
Assay type in all cases: functional
Candida albicans = experiment: Antimicrobial activity against Candida albicans 54 at 200 ug/spot after 18 hrs by agar diffusion method
Enterococcus faecium = experiment: Antibacterial activity against vancomycin-resistant Enterococcus faecium 379 at 200 ug/spot after 18 hrs by […]
Escherichia coli = experiment: Antibacterial activity against permeability mutant Escherichia coli 389 at 200 ug/spot after 18 hrs by agar diffusion method
Staphylococcus aureus [1] = experiment: Antibacterial activity against methicillin-resistant Staphylococcus aureus 310 at 200 ug/spot after 18 hrs by agar diffusion method
Staphylococcus aureus [2] = experiment: Antibacterial activity against methicillin-sensitive Staphylococcus aureus 375 at 200 ug/spot after 18 hrs by agar diffusion method

`C[C@@](Cl)(/C=C/Br)[C@H]1CO[C@@](C)(O)[C@@H](Br)C1` was tested, and the “inhibition zone (IZ)” value (Candida albicans) was 8 mm.

For `CCC[C@@H](OC(C)=O)C1=C(Br)/C(=C\Br)OC1=O` [ACETOXYFIMBROLIDE], the “inhibition zone (IZ)” value (Candida albicans) was 17 mm, the “inhibition zone (IZ)” value (Enterococcus faecium) was 16 mm and the “inhibition zone (IZ)” value (Escherichia coli) was 9 mm. For the same compound, the “inhibition zone (IZ)” value (Staphylococcus aureus [1]) was 25 mm and the “inhibition zone (IZ)” value (Staphylococcus aureus [2]) was 24 mm.

With `CC(C)(Br)[C@@H](Cl)C[C@H](Br)[C@](C)(Cl)/C=C/Br` [ANVERENE] the Activity (Candida albicans) was “inactive”, the “inhibition zone (IZ)” value (Enterococcus faecium) was 8 mm and the Activity (Escherichia coli) was “inactive”. The Activity (Staphylococcus aureus [1]) was “inactive” and the Activity (Staphylococcus aureus [2]) was “inactive”.

With `CCCCC1=C(Br)/C(=C\Br)OC1=O` [FIMBROLIDE] the Activity (Candida albicans) was “inactive”, the Activity (Enterococcus faecium) was “inactive” and the Activity (Escherichia coli) was “inactive”. For the same compound, the “inhibition zone (IZ)” value (Staphylococcus aureus [1]) was 7 mm and the “inhibition zone (IZ)” value (Staphylococcus aureus [2]) was 7 mm.

In the case of `CCC[C@@H](O)C1=C(Br)/C(=C\Br)OC1=O` [HYDROXYFIMBROLIDE], the “inhibition zone (IZ)” value (Candida albicans) is reported as 25 mm, the “inhibition zone (IZ)” value (Enterococcus faecium) is reported as 14 mm and the “inhibition zone (IZ)” value (Escherichia coli) is reported as 9 mm. For the same compound, the “inhibition zone (IZ)” value (Staphylococcus aureus [1]) was 23 mm and the “inhibition zone (IZ)” value (Staphylococcus aureus [2]) was 23 mm.

For `CC1=CC(=O)C=C(C/C=C(\C)CC/C=C(\C)CC/C=C(\C)CC/C=C(\C)C(=O)O)C1=O` [MENZOQUINONE], the “inhibition zone (IZ)” value (Enterococcus faecium) was 7 mm, the “inhibition zone (IZ)” value (Staphylococcus aureus [1]) was 8 mm and the “inhibition zone (IZ)” value (Staphylococcus aureus [2]) was 6 mm.
